The values that follow come from patent publication US9493466B2, “Treatment of cancer with TOR kinase inhibitors” (Signal Pharmaceuticals, LLC, priority 2011, dated 2016).

The test system of test [1] is U87MG tumors. The experiment in a line: Ki67 immunohistochemistry in U87MG tumors. Type of test: in vivo, mice. The conditions noted are these: 5 mg/kg BID oral for 4 days; p<0.001. On the procedure: (§1) Mechanism of action studies. To determine the mechanism of action of Compound 1, mice bearing U87MG tumors of approximately 500 mm^3 were dosed orally with vehicle or Compound 1 at 5 mg/kg BID for 4 days. The positive control, rapamycin, was dosed at 4 mg/kg Q3D for 4 days. Two hours after the 7th dose of Compound 1 on day 4, animals were euthanized and tumors were dissected out and snap frozen in liquid nitrogen. In the rapamycin-treated group tumors were collected at 2 hour after the 2nd dose on day 4. The tumors were processed for immunohistochemistry (IHC) or TUNEL.
Immunohistochemistry. Five to ten micron (5-10 μm) thick cryostat sections were used for IHC. The expression of the cell proliferation marker Ki67 was evaluated by IHC using anti-Ki67 antibody. […] The sections were visualized with a Nikon E800 microscope equipped with fluorescence detection equipment and a digital camera attached to a computer.
Quantitation of Immunohistochemistry. The tissues sections processed for apoptosis or immunostained for proliferating cells (Ki67) or blood vessels were quantitated using Metamorph software. Using 20× objective, 5 different fields from each section, 2-4 sections from each tumor, and 3-4 tumors from each treatment group or control were used for quantitation. The area of interest was expressed as the percent threshold area of the total area. […]

Test [2] has as its system G144-Luc cells. The experiment in a line: G144 cancer stem cell derived intracranial glioblastoma model. Type of test: in vivo, Nude mice. The conditions noted are these: 10 mg/kg and 20 mg/kg QD oral, up to 6 weeks; FIG. 15. On the procedure:
G144 Cancer Stem Cell Derived Intracranial Glioblastoma Model (Compound 1). An intracranial glioblastoma study was conducted with G144 glioblastoma cells transfected with luciferase (G144-Luc). Nude mice were inoculated intracranially with G144-Luc cells into the brain. Following inoculation of animals, the tumors were allowed to grow for 5 weeks. At the end of 5 weeks following tumor cell inoculation, the mice were imaged using Xenogen imaging system. The mice having tumors with an average flux ranging between 3.71×10^6 and 3.87×10^7 photons/sec were pooled together and randomized into various treatment groups. Compound 1 was formulated in 0.5% CMC and 0.25% Tween 80 in water (as a suspension). The animals were orally administered vehicle (CMC-Tween) or Compound 1 once daily (QD) for up to 6 weeks. Doses of 10 mg/kg and 20 mg/kg Compound 1 were used. The positive control Temozolomide (TMZ) (10 mg/kg, QD) was administered via intra peritoneal (IP) route. Temozolomide was formulated in 5% N-methylpyrrolidone, 45% PEG400 and 50% saline. The animals were monitored for tumor growth by imaging for bioluminescence once a week using Xenogen imaging system. Statistical analysis was performed using a one-way analysis of variance (ANOVA) followed by Dunnett's post-hoc comparison with the vehicle-treated control groups.

In test [3] the test system is U87MG tumors. Description: Apoptosis TUNEL assay in U87MG tumors. The settings on record: 5 mg/kg BID oral for 4 days. Type of test: in vivo, mice. On the procedure: as §1
Apoptosis TUNEL Assay. To detect apoptotic cells, fluorescence in situ cell death detection kit (Roche Biosciences) was used. […]
Quantitation of Immunohistochemistry. The tissues sections processed for apoptosis or immunostained for proliferating cells (Ki67) or blood vessels were quantitated using Metamorph software. Using 20× objective, 5 different fields from each section, 2-4 sections from each tumor, and 3-4 tumors from each treatment group or control were used for quantitation. The area of interest was expressed as the percent threshold area of the total area.
Apoptotic Activity of Compound 1. […] FITC-labeled nucleotides (representing the cells with DNA strand breaks, a hallmark of apoptosis) can be detected using a microscope equipped with a fluorescence attachment.

Test [4] concerns Anbl 6. The experiment in a line: Cell proliferation and viability assay for MM lines. Type of test: cell-based. The conditions noted are these: Homo sapiens, 120 h, Anbl 6, 5 days, 7AAD FACS. The procedure:
Cell Proliferation and Viability Assay for MM Lines. Prior to use, cells were washed and maintained in medium for 5 days. Cells were seeded out at a density of 0.3×10^6 cells/mL in a 12-well plate and treated with Compound 1 or Compound 2 for 5 days. 7AAD detection fluorescence-activated cell sorting (FACS) flow cytometry was used in the analysis.

Read-outs that look alike come from different tables or passages of the source.

Turning to `CO[C@H]1CC[C@H](N2C(=O)CNc3ncc(-c4ccc(C(C)(C)O)nc4)nc32)CC1` [Compound 1, 7-(6-(2-hydroxypropan-2-yl)pyridin-3-yl)-1-((1r,4r)-4-methoxycyclohexyl)-3,4-dihydropyrazino-[2,3-b]pyrazin-2(1H)-one], the “reduction in the number of proliferating cells (Ki67) compared with vehicle” value in test [1] is 59%. The intracranial tumor growth result in test [2] is recorded as “significantly inhibited”. Moreover, the “TUNEL-positive cells compared with vehicle control” value in test [3] is recorded as “more than a four-fold increase”.
Take `CCN1C(=O)CNc2ncc(-c3ccc(-c4nc[nH]n4)nc3C)nc21` [Compound 2, 1-ethyl-7-(2-methyl-6-(1H-1,2,4-triazol-3-yl)pyridin-3-yl)-3,4-dihydropyrazino[2,3-b]pyrazin-2(1H)-one]: the IC50 in test [4] (read-out: IC50, Proliferation) is 370 nM; in test [4] (read-out: IC50, Viability), 780 nM.
